Test results published in ChEMBL document CHEMBL3739376, “Synthesis and biological evaluation of N-(4-phenylthiazol-2-yl)cinnamamide derivatives as novel potential anti-tumor agents” (Medchemcomm, 2015).
Activity calls are given as the source filed them. No cut-off for these calls is given here.

Columns and labels:
[1] = system: K562; assay: Cytotoxicity against human K562 cells assessed as inhibition of cell proliferation after 96 hrs by MTT assay; assay type: functional, cell-based; details: K562, 96 h
[2] = system: Jurkat; assay: Cytotoxicity against human Jurkat cells assessed as inhibition of cell proliferation after 96 hrs by MTT assay; assay type: functional, cell-based
[3] = system: A549; assay: Cytotoxicity against human A549 cells assessed as inhibition of cell proliferation after 96 hrs by MTT assay; assay type: functional, cell-based; details: A549, 96 h
[4] = Cytotoxicity against human OCI-LY1 cells assessed as inhibition of cell proliferation after 96 hrs by MTT assay; assay type: functional, cell-based; details: OCI-Ly1, 96 h
[5] = Cytotoxicity against human MV411 cells assessed as inhibition of cell proliferation after 96 hrs by MTT assay; assay type: functional, cell-based; details: MV4-11, 96 h
[6] = Cytotoxicity against human LO2 cells assessed as inhibition of cell proliferation after 96 hrs by MTT assay; assay type: cell-based; details: L02, 96 h
[7] = system: HEK293; assay: Cytotoxicity against HEK293 cells assessed as inhibition of cell proliferation after 96 hrs by MTT assay; assay type: cell-based; details: Homo sapiens, HEK293, 96 h
[8] = system: MCF7; assay: Cytotoxicity against human MCF7 cells assessed as inhibition of cell proliferation after 96 hrs by MTT assay; assay type: functional, cell-based; details: MCF7, 96 h
[9] = Cytotoxicity against human Bel7402 cells assessed as inhibition of cell proliferation after 96 hrs by MTT assay; assay type: functional, cell-based; details: Bel-7402, 96 h
[10] = system: MDA-MB-468; assay: Cytotoxicity against human MDA-MB-468 cells assessed as inhibition of cell proliferation after 96 hrs by MTT assay; assay type: functional, cell-based; details: MDA-MB-468, 96 h
[11] = system: Vero; assay: Cytotoxicity against african green monkey Vero cells assessed as inhibition of cell proliferation after 96 hrs by MTT assay; assay type: cell-based; details: Chlorocebus sabaeus
[12] = system: Bel-7402; assay: Induction of apoptosis in human Bel7402 cells assessed as condensed nuclei at 0.37 to 10 uM after 48 hrs by […] staining-based fluorescence microscopic analysis; assay type: functional, cell-based
[13] = system: Bel-7402; assay: Induction of apoptosis in human Bel7402 cells at 0.37 uM after 48 hrs by propidium iodide staining-based fluorescence microscopic analysis; assay type: functional
[14] = system: K562; assay: Induction of apoptosis in human K562 cells at 3.3 uM after 48 hrs by propidium iodide staining-based fluorescence microscopic analysis; assay type: functional
[15] = system: Bel-7402; assay: Induction of apoptosis in human Bel7402 cells after 48 hrs by propidium iodide staining-based fluorescence microscopic analysis; assay type: functional, cell-based
[16] = system: Bel-7402; assay: Induction of apoptosis in human Bel7402 cells at 10 uM after 48 hrs by propidium iodide staining-based fluorescence microscopic analysis; assay type: functional
[17] = system: A549; assay: Induction of apoptosis in human A549 cells at 3.3 uM after 48 hrs by propidium iodide staining-based fluorescence microscopic analysis; assay type: functional
[18] = system: Bel-7402; assay: Induction of apoptosis in human Bel7402 cells at 1.1 uM after 48 hrs by propidium iodide staining-based fluorescence microscopic analysis; assay type: functional
[19] = system: Jurkat; assay: Induction of apoptosis in human Jurkat cells at 3.3 uM after 48 hrs by propidium iodide staining-based fluorescence microscopic analysis; assay type: functional
[20] = system: Bel-7402; assay: Induction of apoptosis in human Bel7402 cells at 3.3 uM after 48 hrs by propidium iodide staining-based fluorescence microscopic analysis; assay type: functional

## Cc1ccccc1-c1csc(NC(=O)/C=C/c2ccc(N3CCOCC3)cc2)n1
[1]
  IC50: 3.74 µM

## Cc1ccc(-c2csc(NC(=O)/C=C/c3ccc(N4CCOCC4)cc3)n2)c(C)c1
[1]
  IC50: 5.38 µM

## O=C(/C=C/c1ccc(N2CCOCC2)cc1)Nc1nc(-c2cccc(F)c2)cs1
[1]
  IC50: 5.73 µM

## Cc1cc(C)c(-c2csc(NC(=O)/C=C/c3ccc(N4CCOCC4)cc3)n2)c(C)c1
[2]
  IC50: 9.05 µM
[1]
  IC50: 0.61 µM
[3]
  IC50: 4.29 µM
[4]
  IC50: 11.7 µM
[5]
  IC50: 6.42 µM
[6]
  IC50: > 90 µM
[7]
  IC50: > 90 µM
[8]
  IC50: 20 µM
[9]
  IC50: 10.6 µM
[10]
  IC50: > 30 µM
[11]
  IC50: > 90 µM

## Cc1cc(C)c(-c2csc(NC(=O)/C=C/c3ccc(Cl)c(C(F)(F)F)c3)n2)c(C)c1
[1]
  IC50: 3.06 µM

## Cc1cc(C)c(-c2csc(NC(=O)/C=C/c3ccc(C(C)(C)C)cc3)n2)c(C)c1
[12]
  Activity: Active
[2]
  IC50: 0.035 µM
[13]
  Activity: 5.37%
[14]
  Activity: 21.04%
[15]
  Activity: Dose-dependent effect
[1]
  IC50: 0.18 µM
[16]
  Activity: 61.35%
[17]
  Activity: 23.13%
[3]
  IC50: 0.27 µM
[18]
  Activity: 25.37%
[4]
  IC50: 1.54 µM
[5]
  IC50: 0.11 µM
[6]
  IC50: > 90 µM
[7]
  IC50: > 90 µM
[8]
  IC50: > 30 µM
[9]
  IC50: 0.74 µM
[10]
  IC50: > 30 µM
[19]
  Activity: 14.64%
[20]
  Activity: 48.15%
[11]
  IC50: > 90 µM

## O=C(/C=C/c1ccc(N2CCOCC2)cc1)Nc1nc(-c2ccccc2F)cs1
[1]
  IC50: 4.18 µM

## Cc1ccc(/C=C/C(=O)Nc2nc(-c3c(C)cc(C)cc3C)cs2)cc1
[1]
  IC50: 7.88 µM

## Cc1cc(C)c(-c2csc(NC(=O)/C=C/c3ccc(C(F)(F)F)cc3)n2)c(C)c1
[2]
  IC50: 1.15 µM
[1]
  IC50: 0.48 µM
[3]
  IC50: 0.2 µM
[4]
  IC50: 3.69 µM
[5]
  IC50: 3.65 µM
[6]
  IC50: > 90 µM
[7]
  IC50: > 90 µM
[8]
  IC50: > 30 µM
[9]
  IC50: 34.1 µM
[10]
  IC50: 1.53 µM
[11]
  IC50: > 90 µM

## O=C(/C=C/c1ccc(N2CCOCC2)cc1)Nc1nc(-c2c(F)cc(F)cc2F)cs1
[1]
  IC50: 5.15 µM

## COc1ccc(-c2csc(NC(=O)/C=C/c3ccc(N4CCOCC4)cc3)n2)cc1
[1]
  IC50: 14.6 µM

## O=C(/C=C/c1ccc(N2CCOCC2)cc1)Nc1nc(-c2ccc(F)cc2)cs1
[1]
  IC50: 7.3 µM

## COc1cc(C)c(-c2csc(NC(=O)/C=C/c3ccc(N4CCOCC4)cc3)n2)c(C)c1
[2]
  IC50: 1.24 µM
[1]
  IC50: 1 µM
[3]
  IC50: 1.56 µM
[4]
  IC50: > 30 µM
[5]
  IC50: 2.73 µM
[6]
  IC50: > 90 µM
[7]
  IC50: > 90 µM
[8]
  IC50: 1.45 µM
[9]
  IC50: 9.65 µM
[10]
  IC50: > 30 µM
[11]
  IC50: > 90 µM

## Cc1cccc(-c2csc(NC(=O)/C=C/c3ccc(N4CCOCC4)cc3)n2)c1
[1]
  IC50: 7.51 µM

## Cc1cc(C)c(-c2csc(NC(=O)/C=C/c3ccccc3)n2)c(C)c1
[1]
  IC50: 40.4 µM

## COc1cccc(-c2csc(NC(=O)/C=C/c3ccc(N4CCOCC4)cc3)n2)c1
[1]
  IC50: 25.2 µM

## Cc1cc(C)c(-c2csc(NC(=O)/C=C/c3ccc(F)cc3)n2)c(C)c1
[1]
  IC50: 14 µM

## Cc1cc(C)c(-c2csc(NC(=O)/C=C/c3ccc(N4CCCCC4)cc3)n2)c(C)c1
[1]
  IC50: 4.06 µM

## CC(=O)O[C@H]1C(=O)[C@@]2(C)[C@H]([C@H](OC(=O)c3ccccc3)[C@]3(O)C[C@H](OC(=O)[C@H](O)[C@@H](NC(=O)c4ccccc4)c4ccccc4)C(C)=C1C3(C)C)[C@]1(OC(C)=O)CO[C@@H]1C[C@@H]2O [PACLITAXEL]
[2]
  IC50: 0.69 µM
[1]
  IC50: 1.26 µM
[3]
  IC50: 0.74 µM
[4]
  IC50: 0.18 µM
[5]
  IC50: 0.75 µM
[9]
  IC50: > 10 µM
[10]
  IC50: 0.31 µM

## Cc1cc(C)cc(-c2csc(NC(=O)/C=C/c3ccc(N4CCOCC4)cc3)n2)c1
[1]
  IC50: > 90 µM

## Cc1cc(C)c(-c2csc(NC(=O)/C=C/c3ccncc3)n2)c(C)c1
[1]
  IC50: 9.39 µM

## COc1cc(/C=C/C(=O)Nc2nc(-c3c(C)cc(C)cc3C)cs2)cc(OC)c1OC
[1]
  IC50: 11.8 µM

## Cc1ccc(-c2csc(NC(=O)/C=C/c3ccc(N4CCOCC4)cc3)n2)cc1
[1]
  IC50: > 90 µM

## O=C(/C=C/c1ccc(N2CCOCC2)cc1)Nc1nc(-c2ccccc2)cs1
[1]
  IC50: 12.6 µM

## CCOc1ccc(/C=C/C(=O)Nc2nc(-c3c(C)cc(C)cc3C)cs2)cc1
[1]
  IC50: 2.48 µM

## COCCOc1ccc(/C=C/C(=O)Nc2nc(-c3c(C)cc(C)cc3C)cs2)cc1
[1]
  IC50: 1.49 µM

## Cc1cc(C)c(-c2csc(NC(=O)/C=C/c3ccc(Br)cc3)n2)c(C)c1
[1]
  IC50: 4.59 µM

## Cc1cc(C)c(-c2csc(NC(=O)/C=C/c3ccc([N+](=O)[O-])cc3)n2)c(C)c1
[1]
  IC50: 32.2 µM

## COc1ccccc1-c1csc(NC(=O)/C=C/c2ccc(N3CCOCC3)cc2)n1
[1]
  IC50: > 90 µM

## Cc1cc(C)c(-c2csc(NC(=O)/C=C/c3ccc(C4CC4)cc3)n2)c(C)c1
[2]
  IC50: 1.24 µM
[1]
  IC50: 0.38 µM
[3]
  IC50: 1.17 µM
[4]
  IC50: 1.63 µM
[5]
  IC50: 1.41 µM
[6]
  IC50: > 90 µM
[7]
  IC50: > 90 µM
[8]
  IC50: 7.76 µM
[9]
  IC50: 6.58 µM
[10]
  IC50: 15.7 µM
[11]
  IC50: > 90 µM

## COc1ccc(/C=C/C(=O)Nc2nc(-c3c(C)cc(C)cc3C)cs2)cc1
[1]
  IC50: 4.16 µM

## CCOc1cc(C)c(-c2csc(NC(=O)/C=C/c3ccc(N4CCOCC4)cc3)n2)c(C)c1
[1]
  IC50: 2.09 µM

## COc1cc(F)c(-c2csc(NC(=O)/C=C/c3ccc(N4CCOCC4)cc3)n2)c(F)c1
[1]
  IC50: 30.3 µM
